For one test, the target named is T1, ACE2 (Mus musculus, UniProt Q8R0I0).
T1 construct: taking 50 mg mice liver tissue, adding 500 μL lysis solution to perform the homogenization treatment; from tissue; host or cells: mouse liver tissue homogenate supernatant
The experiment in a line: ACE2 active fluorescence detection kit, influence of SCOL polypeptide on ACE2 enzyme activity in mice liver tissue supernatant. Type of test: biochemical. The method, then:
Detection was performed by using Biyuntian ACE2 active fluorescence detection kit; the principle was as follows. […] When the substrate was fully cut by the ACE2, two ends of the polypeptide were separated, two fluorophores were separated, which led to detection of the fluorescence, such that the enzyme activity of the ACE2 protein enzyme can be sensitively detected by the fluorescence detection.
(1) preparation of samples: taking 50 mg mice liver tissue, adding 500 μL lysis solution to perform the homogenization treatment, centrifuging at 4° C. under 12000×g for 5 min, taking the supernatant for next step; […]
(3) adding 2 μL substrates in the 96 hole plate, individually adding 2.2 μL with concentration of 0.004, 0.008, 0.012, 0.016, 0.02 μg/μL of the total concentration in the PCR tubes, adding 8.8 μL supernatant sample in step (1), adding 96.8 μL buffer; and adding 11 μL lysis solution and 96.8 μL buffer in a blank control, mixing, sucking above 98 μL solution by a volley gun and adding to the 96 hole plate with substrates. Performing fluorescence detection by a fluorescence microplate reader after mixing, in particular, the setting temperature was at 37° C., the excitation wavelength was 325 nm, and the emission wavelength was 393 nm. […]

In test [1] the target is T2, novel coronavirus S protein-ACE2 protein binding (Homo sapiens, UniProt Q9BYF1).
T2 construct: purchased RayBio
The experiment in a line: biochemical.

We go through 1 compound from US12247087B2, “Biological active peptide for improving enzyme activity of ACE2 and application thereof” (priority 2023, dated 2025).

SMILES strings stand for the structures. Peptide text beside a SMILES is read from it.

T2 sequence (Q9BYF1 18-740): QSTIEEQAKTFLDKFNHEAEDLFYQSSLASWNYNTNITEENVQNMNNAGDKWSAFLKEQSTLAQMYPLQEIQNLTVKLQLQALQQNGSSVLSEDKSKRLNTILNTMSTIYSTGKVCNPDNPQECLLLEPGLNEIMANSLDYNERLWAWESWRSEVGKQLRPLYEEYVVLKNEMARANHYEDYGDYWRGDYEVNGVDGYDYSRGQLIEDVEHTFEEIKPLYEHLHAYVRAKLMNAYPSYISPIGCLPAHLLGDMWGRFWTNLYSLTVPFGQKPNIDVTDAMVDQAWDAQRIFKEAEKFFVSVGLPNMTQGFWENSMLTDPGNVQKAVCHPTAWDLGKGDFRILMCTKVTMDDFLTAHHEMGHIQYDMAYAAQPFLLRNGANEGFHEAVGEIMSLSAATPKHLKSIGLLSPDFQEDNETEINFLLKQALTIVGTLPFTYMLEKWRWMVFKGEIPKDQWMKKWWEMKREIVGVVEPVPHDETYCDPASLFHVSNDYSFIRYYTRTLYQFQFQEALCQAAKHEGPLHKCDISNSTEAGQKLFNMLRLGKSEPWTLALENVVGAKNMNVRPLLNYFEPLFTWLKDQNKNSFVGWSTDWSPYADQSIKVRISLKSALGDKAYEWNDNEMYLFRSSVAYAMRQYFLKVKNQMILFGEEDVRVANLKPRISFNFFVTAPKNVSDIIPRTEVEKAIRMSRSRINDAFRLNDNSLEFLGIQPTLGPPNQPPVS
T1 sequence (Q8R0I0 18-805): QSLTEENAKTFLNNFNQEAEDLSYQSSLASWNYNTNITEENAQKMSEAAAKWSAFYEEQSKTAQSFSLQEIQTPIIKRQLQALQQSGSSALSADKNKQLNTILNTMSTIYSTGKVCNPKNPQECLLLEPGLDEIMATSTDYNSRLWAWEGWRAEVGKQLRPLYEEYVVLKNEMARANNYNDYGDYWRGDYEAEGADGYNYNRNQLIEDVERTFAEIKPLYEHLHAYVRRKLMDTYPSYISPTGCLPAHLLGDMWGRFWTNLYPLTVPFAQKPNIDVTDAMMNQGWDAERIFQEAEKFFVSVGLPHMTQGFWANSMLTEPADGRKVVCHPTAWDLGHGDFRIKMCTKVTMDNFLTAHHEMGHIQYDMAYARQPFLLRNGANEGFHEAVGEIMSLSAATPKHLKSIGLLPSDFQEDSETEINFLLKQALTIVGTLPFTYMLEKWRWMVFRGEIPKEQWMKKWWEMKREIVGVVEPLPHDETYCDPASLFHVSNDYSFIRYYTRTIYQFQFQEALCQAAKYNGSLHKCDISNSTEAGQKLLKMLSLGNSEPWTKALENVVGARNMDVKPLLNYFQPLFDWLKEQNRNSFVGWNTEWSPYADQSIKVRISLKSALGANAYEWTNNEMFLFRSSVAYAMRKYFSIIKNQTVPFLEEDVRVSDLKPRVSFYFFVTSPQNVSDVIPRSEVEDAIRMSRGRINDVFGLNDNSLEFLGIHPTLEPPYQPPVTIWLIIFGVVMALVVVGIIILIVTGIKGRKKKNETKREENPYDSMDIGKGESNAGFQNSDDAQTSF

As a reminder, the inhibition is the share of the control response that was lost under treatment. For the compound `CC[C@H](C)[C@H](N)C(=O)N1CCC[C@H]1C(=O)N[C@@H](CO)C(=O)N[C@H](C(=O)N[C@H](C(=O)N1CCC[C@H]1C(=O)N[C@@H](Cc1ccccc1)C(=O)N1CCC[C@H]1C(=O)N[C@@H](CO)C(=O)N[C@H](C(=O)N[C@H](C(=O)N[C@H](C(=O)N[C@@H](C)C(=O)N[C@H](C(=O)N[C@H](C(=O)N[C@H](C(=O)N[C@@H](CCSC)C(=O)O)[C@@H](C)O)[C@@H](C)O)[C@@H](C)O)C(C)C)[C@@H](C)O)[C@@H](C)O)[C@@H](C)O)[C@@H](C)O` [SCOL peptide, Ile-Pro-Ser-Thr-Thr-Pro-Phe-Pro-Ser-Thr-Thr-Val-Ala-Thr-Thr-Thr-Met] (H-IPSTTPFPSTTVATTTM-OH; N-terminus and C-terminus assumed), on ACE2 (0.004-0.02 μg/μL), the “activity of the ACE2 in the samples with the increase of the SCOL polypeptide concentration” value is on record as “increasing trend”. Besides, the “highest ACE2 activity relative to the initial activity” value on ACE2 (SCOL polypeptide concentration 0.02 μg/μL, 37° C.) turned out to be 3.76 times. In addition, the “effect on S protein-ACE2 binding compared with the control group” value in test [1] is recorded as “inhibiting effect”. In test [1] (read-out: highest inhibition rate of binding between S protein and ACE2), the inhibition at 800 µg/mL turned out to be 65%.
